According to patent US7763626B2, “Compositions and method for enhancing the therapeutic activity of opiods in treatment of pain” (Trustees of Dartmouth College, priority 2004, dated 2010):

How the values were obtained:
Assay type in all cases: in vivo, rat
[1] = tested on: TNF-α protein; assay: Cytokine protein estimation by ELISA at L5 spinal cord; details: propentofylline 10 micrograms intrathecally for 5 days during induction of morphine tolerance
Protocol: (§1) Quantitative determination of IL-1β, TNF-α and IL-6 protein was performed on the L5 spinal cord of the rats. […] Briefly, weighed sections of L5 spinal cord were homogenized in a homogenization buffer consisting of a protease inhibitor using the a Power Gen 125 tissue tearer (Fisher Scientific, Suwanee, Ga.). Samples were spun at 20,000×g for 30 minutes at 4° C. Supernatant was aliquoted and stored at −80° C. for future protein quantification. IL-1β and TNF-α (R&D Systems, Minneapolis, Minn.) and IL-6 (Biosource, Camarillo, Calif.) protein concentrations were determined utilizing the quantitative sandwich enzyme immunoassay.

[2] = tested on: IL-1β protein; assay: as above; details: propentofylline 10 micrograms intrathecally for 5 days during induction of morphine tolerance
Protocol: as §1

[3] = tested on: IL-6 protein; assay: as above; details: propentofylline 10 micrograms intrathecally for 5 days during induction of morphine tolerance
Protocol: as §1

[4] = tested on: Male Sprague-Dawley rats; assay: Mechanical allodynia (von Frey filaments), morphine withdrawal
Protocol: (§2) Male Sprague-Dawley rats (175-200 grams, Harlan, Indianapolis, Ind.) were divided into two groups (n=8 per group). Rats received subcutaneous injections of either saline or morphine (10 mg/kg; Sigma, St. Louis, Mo.) twice daily at 0800 to 0900 and 1600-1700 hour for 5 days in order to induce opioid tolerance. Chronic morphine withdrawal-induced hyperalgesia and allodynia were assessed in the animals 16 hours after the last injection of morphine. Following the recording of morphine withdrawal-induced hyperalgesia and allodynia, animals were treated with morphine (5 microgram) acutely via lumbar intrathecal injection to study the expression of morphine tolerance. Acute analgesic activity or intrathecal morphine in morphine-tolerant and chronic aline-treated rats were evaluated by mechanical (Analgesy-Meter) and thermal (tail-flick) test paradigms. Behaviors recorded prior to the acute administration of intrathecal morphine served as the basal latency measures.
(§3) With an understanding of the effects of morphine alone, separate groups of rats (n=8) received with saline or morphine (10 mg/kg subcutaneously, twice daily for 5 days) and also received once daily injections (at 1100 to 1200 hour) of propentofylline (1 and 10 micrograms) or saline via direct lumbar puncture during the induction of morphine tolerance. Again, chronic morphine withdrawal-induced hyperalgesia and allodynia were assessed in the animals 16 hours after the last subcutaneous morphine injection. Following the recording of morphine withdrawal-induced hyperalgesia and allodynia, animals were treated with morphine (5 micrograms) acutely via lumbar puncture to study the expression of morphine tolerance. As before, the acute analgesic activity of intrathecal morphine in morphine-tolerant and saline-injected rats was evaluated by mechanical (Analgesy-Meter) and thermal (tail-flick) test paradigms. Behavior recorded prior to the acute administration of intrathecal morphine served as the basal latency.
Mechanical sensitivity was measured as the frequency of foot withdrawals elicited by a defined mechanical stimulus. Each rat, under unrestrained conditions, was placed beneath an inverted, ventilated Plexiglas cage upon an elevated aluminum screen surface with 1 cm mesh openings. Animals had been previously acclimated to the environment and the experimenter.
(§4) In blinded testing, rats were subjected to sequential series of 10 tactile stimulations to the dorsal surface of the ipsilateral hindpaw using […] von Frey filaments (Stoelting Co., WoodDale, Ill.) sequentially. The number of foot withdrawals to this normally non-noxious stimulus determined mechanical allodynia. Mechanical sensitivity was assessed by recording the total number of responses elicited during three successive trials separated by at least 10 minutes. The pressure required to elicit paw withdrawal, the paw pressure threshold was determined.

[5] = tested on: Male Sprague-Dawley rats; assay: Paw pressure test (Analgesy-Meter), morphine withdrawal-induced mechanical hyperalgesia
Protocol: as §2, §3, §4

[6] = tested on: Male Sprague-Dawley rats; assay: Morphine tolerance model, acute intrathecal morphine evaluated by thermal and mechanical test paradigms
Protocol: as §2
as §3, with “Following the recording of morphine withdrawal-induced hyperalgesia and allodynia, animals were treated with morphine (5 micrograms) acutely via lumbar puncture to study the expression of morphine tolerance.” left out
as §4
Thermal nociceptive thresholds were evaluated by the hot water tail-flick test that has been described previously (Bian, D. et al. 1999. Brain Res. 831:55-63). […] Again, the total number of responses elicited during three successive trials separated by at least 10 minutes was recorded and then expressed as the % maximal possible effect. […]

[7] = tested on: Mac-1 mRNA; assay: Real-time PCR of Mac-1 mRNA at L5 lumbar spinal cord
Protocol: Total RNA was treated with DNase I (Ambion, Austin, Tex.) to remove DNA contamination before cDNA synthesis. The reverse transcription (RT) was carried out in a 100 μl total reaction volume containing RT buffer, dNTPs, multiscribe reverse transcriptase, RNase-free water and 10 μg of DNase-treated total RNA. The RT reaction was carried out at 25° C. for 10 minutes, 37° C. for 120 minutes, and 95° C. for 5 minutes. Real-time PCR analysis was performed using gene-specific primers and probes that were designed and blasted against GENBANK to confirm their species and gene specificity. […] The real-time PCR reactions were carried out using Platinum Taq DNA polymerase, 20 mM Tris HCl (pH 8.4), 50 mM KCl, 3 mM MgCl2, 200 μM dGTP, dCTP, and dATP, 400 μM of dUTP and 1 U uracyl DNA glycosylase (UDG), 900 nM forward and reverse primers, 300 nM TaqMan probe, and 10-fold dilution of cDNA (50 ng) from the RT step. Primers and probes for glyceraldehyde-3-phosphate (GADPH), GFAP and Mac-1 were obtained form Applied Biosystems (LaJolla, Calif.). The relative standard curves generated by plotting the threshold value versus the log of the amount of total cDNA added to the reaction (1-10000 pg) were used to compare the relative amount of target genes from control and chronic morphine-treated animals.

[8] = tested on: IL-6 mRNA; assay: RNase protection assay, cytokine mRNA at L5 lumbar spinal cord; details: propentofylline 10 micrograms intrathecally for 5 days during induction of morphine tolerance
Protocol: After behavioral testing for reactions to the combined treatment, rats were sacrificed and decapitated. An 18-gauge needle was inserted into the caudal end of the vertebral column and the spinal cord was expelled with ice-cold phosphate-buffered saline. The spinal cord was frozen immediately on dry ice and stored at −80° C. until homogenization. The L5 lumbar spinal cord was isolated from the intact frozen cord at the time of mRNA and protein quantification. Total RNA was isolated from the L5 spinal cord by the TRIzol extraction method (Invitrogen Corporation, Carlsbad, Calif).
Assessment of the temporal cytokine mRNA expression in the L5 lumber spinal cord was performed using a Ribonuclease Protection Assay technique. A Multiprobe RPAse kit was used (Pharmingen, San Diego, Calif.). Total RNA (15 μg) was hybridized to ^32P-labeled antisense RNA probes transcribed using the rat cytokine-1 (rCK-1) multiprobe template set resulting in double-stranded target RNA. After Rnase digestion, protected RNA and probe were resolved on a denaturing polyacrylamide gel and visualized by overnight autoradiography. Quantitative image analysis was employed to compare mRNA levels based on band intensities for each cytokine. The intensity of each band was measured using image analysis software and assigned an arbitrary unit based on the measured intensity levels. The value for the normalized quantity for each band was obtained by dividing by the L32 house-keeping gene control. Individual mRNA concentration was calculated as the ratio of the expression compared with saline-treated animals in which normal values were weighted as 1.

[9] = 16 hours after last morphine injection (10 mg/kg s.c. twice daily 5 days), propentofylline 1 and 10 micrograms intrathecally for 5 days during induction of tolerance
[10] = propentofylline 10 micrograms intrathecally for 5 days

CCCn1cnc2c1c(=O)n(CCCCC(C)=O)c(=O)n2C [propentofylline]
morphine-induced TNF-α protein levels [1]: significantly attenuated
morphine-induced IL-1β protein levels [2]: significantly attenuated
morphine-induced IL-6 protein levels [3]: significantly attenuated
morphine withdrawal-induced mechanical allodynia [4, 9]: significantly attenuated
Mechanical allodynia (2 grams) ([4]; number of foot withdrawals, 2 grams von Frey filament, morphine 10 mg/kg s.c. twice daily 5 days and/or propentofylline 10 micrograms intrathecally): 0
Mechanical allodynia (12 grams) ([4]; number of foot withdrawals, 12 grams von Frey filament, morphine 10 mg/kg s.c. twice daily 5 days and/or propentofylline 10 micrograms intrathecally): 0
Paw pressure latency ([5]; 16 hours after last injection, morphine 10 mg/kg s.c. twice daily 5 days and/or propentofylline 10 micrograms intrathecally once daily 5 days): 119.4 ± 5.4 grams
morphine withdrawal-induced mechanical hyperalgesia [5, 9]: significantly attenuated
expression of spinal nociceptive tolerance to intrathecal morphine (5 micrograms) ([6]; propentofylline 1 and 10 micrograms intrathecally for 5 days during induction of morphine tolerance, thermal and mechanical test paradigms): significantly attenuated
anti-nociceptive activity of acute intrathecal morphine (5 micrograms) in chronic saline-treated rats [6, 10]: no effect
nociceptive threshold in saline-treated rats [6, 10]: no effect
Mac-1 mRNA levels at the L5 lumbar spinal cord ([7]; compared to saline-treated controls, morphine 10 mg/kg twice daily 5 days, or propentofylline 10 micrograms intrathecally 5 days in saline-treated rats): no effect
chronic morphine-induced upregulation of Mac-1 ([7]; propentofylline during the induction phase of morphine tolerance): significantly attenuated
morphine-induced mRNA upregulation for IL-6 [8]: significantly attenuated
